Holding throughout (type): cell-based
Assay [1] has as its system MCF-7 cells. Put plainly: MCF-7 cell proliferation inhibition assay (CTG). Particulars: Homo sapiens. The procedure: (§1) (4) MCF-7, T-47D, and CAMA-1 Cell Proliferation Inhibition Assay
(§2) The inhibitory effect of the test compound of formula (I) on the proliferation of MCF-7, CAMA-1, and T-47D cells was analyzed. For MCF-7 cells, ten concentration gradients ranging from 100 nM to 0.0003815 nM were tested, with three replicates for each concentration. For CAMA-1 cells, nine concentration gradients ranging from 100 nM to 0.001526 nM were tested, also with three replicates for each concentration. For T-47D cells, nine concentration gradients ranging from 2 μM to 0.00512 nM were tested, with three replicates for each concentration. Each experiment was conducted twice independently.
MCF-7 cells that reached 80% cell fusion were digested using trypsin, centrifuged, resuspended, and counted. Cell suspensions were prepared using the corresponding culture medium, and 45 μL of the suspension was added to each well of a 384-well plate. The plate was then incubated at 37° C. in a cell incubator with 5% CO2. The test compound of formula (I) was dissolved in DMSO to an initial concentration of 20 μM and subjected to a 4-fold serial dilution to achieve ten different concentrations. After overnight incubation, the diluted compound was further diluted with the corresponding cell culture medium. The resulting mixture was transferred to the respective wells of the cell plate, starting with a final concentration of 100 nM, followed by a 4-fold serial dilution to achieve ten concentrations. The positive control wells contained 2 μM fulvestrant. The plate was mixed, centrifuged, and incubated at 37° C. in a cell incubator with 5% CO2 for the specified number of days according to the above table.
After incubation for the specified time, the cell culture plate was removed, and the CTG reagent was added. The plate was thoroughly mixed, centrifuged, and incubated at room temperature for 10 minutes. The readings were taken using the Envision multi-label analyzer. Data analysis:
Positive control: cells treated with 2 μM fulvestrant; negative control: cells treated with 0.5% DMSO. […]

Assay [2] deals with MCF-7 ESR1-Y537S. Put plainly: Proliferation inhibition assay, MCF-7 ESR1-Y537S mutant cell line. Particulars: Homo sapiens, MCF7, 168 h, 7 days. The protocol:
The tumor cell lines were cultured in an incubator at 37° C. with 5% CO2. Regular passaging was performed, and cells in the logarithmic growth phase were selected for plating.
• 1) Cells were stained with trypan blue and viable cells were counted. • 2) Cells were washed once with PBS and resuspended in RPMI 1640+10% FBS medium without phenol red. The concentration was adjusted to an appropriate one. • 3) 135 μL of the cell suspension per well was added to a culture plate, and cell-free culture medium was added to the blank control well. • 4) The plates were incubated overnight at 37° C. with 5% CO2 and 100% relative humidity. 3. Preparation of 10× Compound Working Solution and Treatment of Cells • 1) Preparation of 10× compound working solution: 199 μL of cell culture medium was added to V-bottom 96-well plates. From a 2000× compound storage plate, 1 μL of the compound was added to the 96-well plate containing cell culture medium. 1 μL of DMSO was added to vehicle control and blank control. […] The final concentration of DMSO was 0.05%. • 3) The 96-well cell plate was returned to the incubator for further culture, and cell viability was assessed after 7 days. […]
The inhibition rate (IR) of the compound was calculated using the following formula:
[formula] Inhibition rates for different concentrations of the compound were calculated in Excel. […]

For assay [3], the system named is T-47D cells. Put plainly: T-47D cell proliferation inhibition assay (CTG). Particulars: Homo sapiens, T47D, 1 nM estradiol. The procedure: as §1
T-47D: RPMI-1640 (without phenol red) containing 10% charcoal-stripped serum (500 mL culture medium containing 450 mL RPMI-1640, 50 mL charcoal-stripped serum).
as §2
The T-47D cells were treated with starvation medium for three days, followed by trypsin digestion, centrifugation, resuspension, and counting. Cell suspensions were prepared using the corresponding culture medium, and 40 μL of the suspension was added to each well of a 384-well plate. The plate was then incubated at 37° C. in a cell incubator with 5% CO2. The test compound of formula (I) was dissolved in DMSO to an initial concentration of 400 μM and subjected to a 5-fold serial dilution to achieve nine different concentrations. After overnight incubation, the diluted compound was further diluted with the corresponding cell culture medium. The resulting mixture was transferred to the respective wells of the cell plate, starting with a final concentration of 2 μM, followed by a 5-fold serial dilution to achieve nine concentrations. The positive control wells contained 2 μM fulvestrant, and 1 nM estradiol was added to the entire plate. The plate was mixed, centrifuged, and incubated at 37° C. in a cell incubator with 5% CO2 for the specified number of days according to the above table.
After incubation for the specified time, the cell culture plate was removed, and the CTG reagent was added. […] The readings were taken using the Envision multi-label analyzer. […]

In general, IC50 refers to the concentration needed to halve the response being measured. The term IC90 denotes the point of the concentration-response curve where the effect stands at 90%. `FCCCN1CC[C@H](Nc2cnc(C3=C(CC(F)(F)F)CCCc4c3ccc3[nH]nc(F)c43)cn2)C1` [Compound of formula (I)]: the IC50 turned out to be 0.19 nM in assay [1] (MCF7, First experiment); 0.18 ± 0.013 nM in assay [1] (MCF7, Mean ± SD); 0.16 nM in assay [1] (MCF7, Second experiment); 11.2 nM in assay [2] (read-out: Relative IC50); 1.98 nM in assay [3] (First experiment); 2.35 ± 0.37 nM in assay [3] (Mean ± SD). This molecule also yielded an IC50 in assay [3] (Second experiment) of 2.71 nM. Further, the IC90 in assay [2] (read-out: Relative IC90) came to 101 nM.

Source of the values: US12410155B2, “Salt form and crystal form of tetrahydrocyclohepta indazole compound” (Zhejiang Yangli Pharmaceutical Technology Co., Ltd., priority 2021, dated 2025).
